Source: patent US20240197823A1, “CATIONIC ANTIMICROBIAL PEPTIDES AND USES THEREOF” (priority 2021, published 2024)

Legend:
Assay type in all cases: cell-based, Pseudomonas aeruginosa
[1] = system: P. aeruginosa strain PA239; assay: Bactericidal assay in FBS-containing medium (FMP); details: within the 3 h of incubation
Description: (§1) To test whether PAX follow this common mechanism, the experiment initially examined the bactericidal activity of the top selection, PAX E35, against the MDR P. aeruginosa strain PA239 (resistant to all 12 test antibiotics, including colistin, Table 6). Bactericidal properties were assessed using a medium called FMP (FBS, 15%; MHB2, 25%; PBS, 60%) that is more physiologically relevant than MHB2 with the inclusion of saline and fetal bovine serum, a known inhibitory condition for many AMPs [Di Y P et al., 2020; Deslouches B et al., 2005]. […] In addition, E35 killed 2 logs of the bacterial cells within the first minute of treatment at 2 μM and 4 μM, compared to the non-effective tobramycin (FIG. 6B). No bacterial cells survived E35 treatment after 5-10 minutes of incubation. […]
(§2) Antibacterial assays. […] The bacterial cells were kept in an incubator for 18 hours at 37° C., which is linked to a robotic system that feeds a plate reader every hour with one of 8×96-well plates. This set-up allows the collection of growth kinetic data at A 570 (absorbance at 570 nm) to examine growth inhibition in real time (BioTek Instruments, USA). […] MBC (minimum bactericidal concentration) was determined as the peptide concentration at which complete bacterial killing was observed [Rozek A et al., 2000]. […] Data were analyzed using GraphPad Prism software.

[2] = system: P. aeruginosa strain PA239; assay: Killing kinetics; details: PA239, at 2 μM and 4 μM
Description: as §1, §2

[3] = system: MDR strain PA239; assay: Membrane permeabilization, PI incorporation by real-time video imaging; details: PA239 at high inoculum (5×10^8 CFU/mL); E35 at 8 μM
Description: (§3) Determination of membrane permeabilization. To examine whether the selected peptides kill their bacterial target mainly by membrane permeabilization, this study used PI incorporation by the MDR strain PA239 (5×10^8 CFU/mL) quantitated by flow cytometry (Novocyte, USA) or visualized by video imaging using the digital microscope EVOS M7000 (Thermo-Fisher, USA) in bright field or red fluorescence channel. In the flow cytometry experiments [Deslouches B et al., 2015], bacterial cells were either untreated or treated with different peptide E35 concentrations in MHB2 for 1 hour at 37° C. The bacteria-peptide mixture was washed with PBS using an Eppendorf centrifuge at top speed for 7 minutes and incubated with PI in the dark for 15 min at room temperature. Tobramycin was used as a negative control with a 3-hour long incubation. For video imaging, the broth medium was reduced to 20% in PBS (treated or untreated) to decrease the rate of cell division and PI incorporation assessed over time. Video images were recorded in real time using the 40× objective either in bright field or red fluorescence channel.

[4] = system: MDR strain PA239; assay: Membrane permeabilization, PI incorporation by flow cytometry; details: PA239, 1% triton X-100
Description: as §3

| Compound | bacterial killing [1] | bacterial cells killed within the first minute of treatment [2] | PI incorporation by real-time video imaging [3] | PI incorporation [4] |
| --- | --- | --- | --- | --- |
| NC[C@H]1O[C@H](O[C@H]2[C@H](O)[C@@H](O[C@H]3O[C@H](CO)[C@@H](O)[C@H](N)[C@H]3O)[C@H](N)C[C@@H]2N)[C@H](N)C[C@@H]1O [tobramycin] | did not display any substantial bacterial killing | non-effective | did not demonstrate any markedly detectable intracellular PI | – |
| triton X-100 | – | – | – | 55% |
